Assays:
[1] = molecular target: T1, Human CB1 receptor (hCB1) (Homo sapiens, UniProt P21554); assay: hCB1 receptor binding (3H-CP55,940 displacement); conditions: hCB1 membranes, Ki=IC50/(1+[rad]/Kd)
T1 construct: purchased Receptor Biology
Method: hCB1 and hCB2 Receptor Binding
Human CB1 receptor from Receptor Biology (hCB1) or human CB2 receptor from BioSignal (hCB2) membranes are thawed at 37° C., passed 3 times through a 25-gauge blunt-end needle, diluted in the cannabinoid binding buffer (50 mM Tris, 2.5 mM EDTA, 5 mM MgCl2, and 0.5 mg/mL BSA fatty acid free, pH 7.4) and aliquots containing the appropriate amount of protein are distributed in 96-well plates. […] The total and non-specific binding are determined in the absence and presence of 0.2 μM of HU210 respectively. The plates are vortexed and incubated for 60 minutes at room temperature, filtered through Unifilters GF/B (presoaked in 0.1% polyethyleneimine) with the Tomtec or Packard harvester using 3 mL of wash buffer (50 mM Tris, 5 mM MgCl2, 0.5 mg BSA pH 7.0). The filters are dried for 1 hour at 55° C. The radioactivity (cpm) is counted in a TopCount (Packard) after adding 65 μl/well of MS-20 scintillation liquid.
Based on the above assays, the dissociation constant (Ki) for a particular compound of the invention towards a particular receptor is determined using the following equation:
[rad] is a standard or reference radioactive ligand concentration at that moment; and
Kd is the dissociation constant of the radioactive ligand towards the particular receptor.

[2] = molecular target: T1, Human CB1 receptor (hCB1); assay: hCB1 GTPγS binding; type: biochemical; conditions: for EC50: hCB1 membranes, GTPγ35S, 10-point dose-response; for Emax: maximal stimulated binding determined with 10 μM Win 55,212-2
Method: hCB1 and hCB2 GTPγS Binding
Human CB1 receptor from Receptor Biology (hCB1) or human CB2 receptor membranes (BioSignal) are thawed at 37° C., passed 3 times through a 25-gauge blunt-end needle and diluted in the GTPγS binding buffer (50 mM Hepes, 20 mM NaOH, 100 mM NaCl, 1 mM EDTA, 5 mM MgCl2, pH 7.4, 0.1% BSA). […] The basal and maximal stimulated binding is determined in absence and presence of 1 μM (hCB2) or 10 μM (hCB1) Win 55, 212-2 respectively. The membranes are pre-incubated for 5 minutes with 56.25 μM (hCB2) or 112.5 μM (hCB1) GDP prior to distribution in plates (15 μM (hCB2) or 30 μM (hCB1) GDP final). The plates are vortexed and incubated for 60 minutes at room temperature, filtered on Unifilters GF/B (presoaked in water) with the Tomtec or Packard harvester using 3 ml of wash buffer (50 mM Tris, 5 mM MgCl2, 50 mM NaCl, pH 7.0). The filters are dried for 1 hour at 55° C. The radioactivity (cpm) is counted in a TopCount (Packard) after adding 65 μl/well of MS-20 scintillation liquid. Antagonist reversal studies are done in the same way except that (a) an agonist dose-response curve is done in the presence of a constant concentration of antagonist, or (b) an antagonist dose-response curve is done in the presence of a constant concentration of agonist.

T1 sequence (P21554 whole entry): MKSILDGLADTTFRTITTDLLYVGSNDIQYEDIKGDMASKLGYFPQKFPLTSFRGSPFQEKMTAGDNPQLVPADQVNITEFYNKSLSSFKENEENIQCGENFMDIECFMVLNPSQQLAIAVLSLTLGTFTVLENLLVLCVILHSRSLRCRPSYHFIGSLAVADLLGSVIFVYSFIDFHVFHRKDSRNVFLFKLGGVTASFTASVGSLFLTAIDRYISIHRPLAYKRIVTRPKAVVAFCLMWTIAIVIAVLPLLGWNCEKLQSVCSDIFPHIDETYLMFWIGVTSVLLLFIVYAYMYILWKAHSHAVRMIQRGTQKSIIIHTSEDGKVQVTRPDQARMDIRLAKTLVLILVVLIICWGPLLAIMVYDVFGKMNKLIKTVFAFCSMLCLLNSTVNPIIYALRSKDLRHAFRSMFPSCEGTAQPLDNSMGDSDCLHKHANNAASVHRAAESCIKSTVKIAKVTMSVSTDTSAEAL

Row | Structure (SMILES) | Ki [1] | EC50 [2] | Emax [2]
1 | CC(C)C(=O)NC1CCCN(C(=O)c2ccc3c(c2)c2c(n3C)CCC(C3CCOCC3)C2)C1 (stereo not drawn) [2-methyl-N-[1-[9-methyl-6-(oxan-4-yl)5,6,7,8-tetrahydrocarbazole-3-carbonyl]-3-piperidyl]propanamide] | 157 nM | 401 nM | 118%
2 | CN(CC(=O)NC1CC1)C(=O)c1ccc2c(c1)c1c(n2S(C)(=O)=O)CCC(C2CCCCC2)C1 (stereo not drawn) [6-cyclohexyl-N-(cyclopropylcarbamoylmethyl)-N-methyl-9-methylsulfonyl-5,6,7,8-tetrahydrocarbazole-3-carboxamide] | 7.9 nM | 31.3 nM | 111%
3 | CC(C)S(=O)(=O)n1c2c(c3cc(C(=O)N(C)CC(=O)NC4CC4)ccc31)CC(C1CCCCC1)CC2 (stereo not drawn) [6-cyclohexyl-N-(cyclopropylcarbamoylmethyl)-N-methyl-9-propan-2-ylsulfonyl-5,6,7,8-tetrahydrocarbazole-3-carboxamide] | 21.2 nM | 43.9 nM | 110%
4 | CCNC(=O)CN(CC)C(=O)c1ccc2c(c1)c1c(n2CC2CC2)CCC(C2CCOCC2)C1 (stereo not drawn) [9-(cyclopropylmethyl)-N-ethyl-N-(ethylcarbamoylmethyl)-6-(oxan-4-yl)-5,6,7,8-tetrahydrocarbazole-3-carboxamide] | 65.2 nM | 157 nM | 90%
5 | CCN(CC(=O)NC(C)C)C(=O)c1ccc2c(c1)c1c(n2C2CCC2)CCC(C2CCOCC2)C1 (stereo not drawn) [9-cyclobutyl-N-ethyl-6-(oxan-4-yl)-N-(propan-2-ylcarbamoylmethyl)-5,6,7,8-tetrahydrocarbazole-3-carboxamide] | 152 nM | 293 nM | 70%
6 | CCN(CC(=O)NCCF)C(=O)c1ccc2c(c1)c1c(n2C2CCC2)CCC(C2CCOCC2)C1 (stereo not drawn) [9-cyclobutyl-N-ethyl-N-(2-fluoroethylcarbamoylmethyl)-6-(oxan-4-yl)-5,6,7,8-tetrahydrocarbazole-3-carboxamide] | 131 nM | 279 nM | 80%
7 | CCNC(=O)CN(CC)C(=O)c1ccc2c(c1)c1c(n2C2CCC2)CCC(C2CCOCC2)C1 (stereo not drawn) [9-cyclobutyl-N-ethyl-N-(ethylcarbamoylmethyl)-6-(oxan-4-yl)-5,6,7,8-tetrahydrocarbazole-3-carboxamide] | 113 nM | 233 nM | 82%
8 | CCn1c2c(c3cc(C(=O)N(C)CCCC(=O)NCCF)ccc31)CC(C1CCOCC1)CC2 (stereo not drawn) [9-ethyl-N-[3-(2-fluoroethylcarbamoyl)propyl]-N-methyl-6-(oxan-4-yl)-5,6,7,8-tetrahydrocarbazole-3-carboxamide] | 25.8 nM | 60.3 nM | 119%
9 | CCn1c2c(c3cc(C(=O)N(C)CCCC(=O)NCCO)ccc31)CC(C1CCOCC1)CC2 (stereo not drawn) [9-ethyl-N-[3-(2-hydroxyethylcarbamoyl)propyl]-N-methyl-6-(oxan-4-yl)-5,6,7,8-tetrahydrocarbazole-3-carboxamide] | 236 nM | 597 nM | 119%
10 | CCn1c2c(c3cc(C(=O)N(C)CCCC(=O)NCC(F)(F)F)ccc31)CC(C1CCOCC1)CC2 (stereo not drawn) [9-ethyl-N-methyl-6-(oxan-4-yl)-N-[3-(2,2,2-trifluoroethylcarbamoyl)propyl]-5,6,7,8-tetrahydrocarbazole-3-carboxamide] | 110 nM | 228 nM | 98%
11 | CCn1c2c(c3cc(C(=O)N(C)CCCC(=O)NC)ccc31)CC(C1CCOCC1)CC2 (stereo not drawn) [9-ethyl-N-methyl-N-[3-(methylcarbamoyl)propyl]-6-(oxan-4-yl)-5,6,7,8-tetrahydrocarbazole-3-carboxamide] | 59.2 nM | 146 nM | 121%
12 | Cn1c2c(c3cc(C(=O)N4CC[C@H](C(=O)NCC(F)F)C4)ccc31)CC(C1CCOCC1)CC2 (stereo partly drawn) [(3S)—N-(2,2-difluoroethyl)-1-[9-methyl-6-(oxan-4-yl)5,6,7,8-tetrahydrocarbazole-3-carbonyl]pyrrolidine-3-carboxamide] | 49.5 nM | 82.6 nM | 125%
13 | Cn1c2c(c3cc(C(=O)N4CC[C@H](C(=O)NCCF)C4)ccc31)CC(C1CCOCC1)CC2 (stereo partly drawn) [(3S)—N-(2-fluoroethyl)-1-[9-methyl-6-(oxan-4-yl)5,6,7,8-tetrahydrocarbazole-3-carbonyl]pyrrolidine-3-carboxamide] | 30.5 nM |  | 119%
14 | Cn1c2c(c3cc(C(=O)N4CC[C@H](C(=O)NCC5CC5)C4)ccc31)CC(C1CCOCC1)CC2 (stereo partly drawn) [(3S)—N-(cyclopropylmethyl)-1-[9-methyl-6-(oxan-4-yl)5,6,7,8-tetrahydrocarbazole-3-carbonyl]pyrrolidine-3-carboxamide] | 109 nM | 251 nM | 117%
15 | CCNC(=O)[C@H]1CCN(C(=O)c2ccc3c(c2)c2c(n3C)CCC(C3CCOCC3)C2)C1 (stereo partly drawn) [(3S)—N-ethyl-1-[9-methyl-6-(oxan-4-yl)5,6,7,8-tetrahydrocarbazole-3-carbonyl]pyrrolidine-3-carboxamide] | 69.9 nM | 103 nM | 122%
16 | CCn1c2c(c3cc(C(=O)N4CCC(C)CC4)ccc31)CC(C1CCCCC1)CC2 (stereo not drawn) [(6-cyclohexyl-9-ethyl-5,6,7,8-tetrahydrocarbazol-3-yl)-(4-methyl-1-piperidyl)methanone] | 82.3 nM | 234 nM | 90%
17 | CNCCN(C)C(=O)c1ccc2c(c1)c1c(n2C)CCC(C2CCOCC2)C1 (stereo not drawn) [N,9-dimethyl-N-(2-methylaminoethyl)-6-(oxan-4-yl)-5,6,7,8-tetrahydrocarbazole-3-carboxamide] | > 8720 nM |  | 
18 | Cn1c2c(c3cc(C(=O)NCCF)ccc31)CC(C1CCOCC1)CC2 (stereo not drawn) [N-(2-fluoroethyl)-9-methyl-6-(oxan-4-yl)-5,6,7,8-tetrahydrocarbazole-3-carboxamide] | 659 nM |  | 
19 | CCN(CC(=O)NCC#N)C(=O)c1ccc2c(c1)c1c(n2C)CCC(C2CCOCC2)C1 (stereo not drawn) [N-(cyanomethylcarbamoylmethyl)-N-ethyl-9-methyl-6-(oxan-4-yl)-5,6,7,8-tetrahydrocarbazole-3-carboxamide] | 333 nM |  | 
20 | CN(C(=O)c1ccc2c(c1)c1c(n2C)CCC(C2CCOCC2)C1)C1(C(=O)NC2CC2)CC1 (stereo not drawn) [N-[1-(cyclopropylcarbamoyl)cyclopropyl]-N,9-dimethyl-6-(oxan-4-yl)-5,6,7,8-tetrahydrocarbazole-3-carboxamide] | 371 nM |  | 
21 | CN(CCC(=O)NC1CC1)C(=O)c1ccc2c(c1)c1c(n2C)CCC(C2CCOCC2)C1 (stereo not drawn) [N-[2-(cyclopropylcarbamoyl)ethyl]-N,9-dimethyl-6-(oxan-4-yl)-5,6,7,8-tetrahydrocarbazole-3-carboxamide] | 655 nM |  | 
22 | Cn1c2c(c3cc(C(=O)NCCCC(=O)NC4CC4)ccc31)CC(C1CCOCC1)CC2 (stereo not drawn) [N-[3-(cyclopropylcarbamoyl)propyl]-9-methyl-6-(oxan-4-yl)-5,6,7,8-tetrahydrocarbazole-3-carboxamide] | 1440 nM |  | 
23 | CCN(CC(=O)NC1(C#N)CC1)C(=O)c1ccc2c(c1)c1c(n2C)CCC(C2CCOCC2)C1 (stereo not drawn) [N-[(1-cyanocyclopropyl)carbamoylmethyl]-N-ethyl-9-methyl-6-(oxan-4-yl)-5,6,7,8-tetrahydrocarbazole-3-carboxamide] | > 1170 nM |  | 
24 | C[C@@H](C(=O)NCCF)N(C)C(=O)c1ccc2c(c1)c1c(n2C)CCC(C2CCOCC2)C1 (stereo partly drawn) [N-[(1S)-1-(2-fluoroethylcarbamoyl)ethyl]-N,9-dimethyl-6-(oxan-4-yl)-5,6,7,8-tetrahydrocarbazole-3-carboxamide] | > 1400 nM |  | 
25 | C[C@@H](C(=O)NC1CC1)N(C)C(=O)c1ccc2c(c1)c1c(n2C)CCC(C2CCOCC2)C1 (stereo partly drawn) [N-[(1S)-1-(cyclopropylcarbamoyl)ethyl]-N,9-dimethyl-6-(oxan-4-yl)-5,6,7,8-tetrahydrocarbazole-3-carboxamide] | > 3530 nM |  | 
26 | Cn1c2c(c3cc(C(=O)N4CC(CC(=O)NC5CC5)C4)ccc31)CC(C1CCOCC1)CC2 (stereo not drawn) [N-cyclopropyl-2-[1-[9-methyl-6-(oxan-4-yl)5,6,7,8-tetrahydrocarbazole-3-carbonyl]azetidin-3-yl]acetamide] | 2080 nM |  | 

Source: patent US20090062251A1, “Novel Compounds 002” (ASTRAZENECA AB, priority 2007, published 2009)
